The text below walks through data of patent publication US11389465B2, “Phosphorylated hexaacyl disaccharides (PHADs) for treating or preventing infections” (VANDERBILT UNIVERSITY, priority 2017, dated 2022).

This test relates to Pseudomonas aeruginosa. As to the kind of experiment: Duration of MPLA activity, intraperitoneal P. aeruginosa challenge (FIG. 4). It is filed as in vivo, mice. Here is the method: FIG. 4. Duration of MPLA activity. Mice were treated with MPLA (20 μg IP) for 2 consecutive days and challenged with P. aeruginosa at the designated times after the last MPLA treatment. *<0.05 compared to vehicle control.
It is important to know how long the effect of PHADs lasts to guide dosing frequency. Studies were performed with MPLA that show a duration of action of up to 10 days. Mice were treated with MPLA on 2 consecutive days (20 μg, IP) followed by intraperitoneal challenge with Pseudomonas aeruginosa (1×10^8) at 1, 7, 10 or 15 days after the last MPLA treatment (FIG. 4).

As for Monophosphoryl Lipid A [MPLA], the duration of action result (MPLA 20 μg IP on 2 consecutive days) is reported as “up to 10 days”. For the same substance, the bacterial burden entry (challenge at 1, 7 and 10 days after last MPLA treatment, compared to vehicle) is on record as “significantly lower bacterial burden”. For the setting “challenge up to 15 days after last MPLA treatment”, the attenuation of hypothermia result is “persisted until day 15”.
